Laboratory results published in US20100196355A1, “Immunophilin Ligands and Methods for Modulating Immunophilin and Calcium Channel Activity” (Wyeth, priority 2007, published 2010).
One block for each molecule: values may come before it.

What was measured:
[1] = tested on: FKBPs; experiment: Size exclusion binding of [14C]-1 to purified recombinant protein; design: species or system human; conditions: 10 μM
Text: (§1) Using Gateway cloning methods developed by Invitrogen (Carlsbad, Calif.), cacnb1/CACNB 1, cacnb4/CACNB4fkbp3/FKBP25, fkbp4/FKBP52, ppid, ppif and fkbp8/FKBP38 genes were cloned into the pDEST17 (N-His6 tag) vector. The His6-CACNB1: TGG548TAA were generated from pDEST17-CACNB1 using QuikChange site-directed mutagenesis kit (Stratagene, LaJolla, Calif.). The His6 tagged protein was purified on a Ni-NTA column (Qiagen, Valencia, Calif.).

[2] = target: T1, CACNB4 (Homo sapiens, UniProt O00305); experiment: as above; conditions: 10 μM
T1 construct: His6 (N); made in house
Text: as §1

[3] = target: T2, His6-CACNB1:TGG548TAA (Homo sapiens, UniProt Q02641); experiment: as above; conditions: 10 μM
T2 construct: His6 (N); made in house
T2 sequence (Q02641 1-547 limits assumed): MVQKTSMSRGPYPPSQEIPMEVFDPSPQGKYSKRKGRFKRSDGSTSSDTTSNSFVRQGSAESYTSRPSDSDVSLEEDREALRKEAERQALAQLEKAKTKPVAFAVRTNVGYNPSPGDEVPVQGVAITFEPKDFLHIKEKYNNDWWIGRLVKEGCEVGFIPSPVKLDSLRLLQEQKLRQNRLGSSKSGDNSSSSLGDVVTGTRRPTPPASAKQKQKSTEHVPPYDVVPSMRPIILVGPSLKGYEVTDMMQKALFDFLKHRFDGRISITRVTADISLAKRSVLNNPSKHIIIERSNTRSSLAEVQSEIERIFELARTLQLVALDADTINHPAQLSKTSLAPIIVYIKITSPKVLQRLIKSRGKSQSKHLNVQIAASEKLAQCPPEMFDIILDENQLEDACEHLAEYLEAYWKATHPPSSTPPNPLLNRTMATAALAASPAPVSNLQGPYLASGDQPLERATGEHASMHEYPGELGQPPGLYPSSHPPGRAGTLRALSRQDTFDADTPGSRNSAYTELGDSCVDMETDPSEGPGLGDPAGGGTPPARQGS
Text: as §1

[4] = target: T3, PPID (Homo sapiens, UniProt Q08752); experiment: as above; conditions: 10 μM
T3 construct: His6 (N); made in house
T3 sequence (Q08752 whole entry): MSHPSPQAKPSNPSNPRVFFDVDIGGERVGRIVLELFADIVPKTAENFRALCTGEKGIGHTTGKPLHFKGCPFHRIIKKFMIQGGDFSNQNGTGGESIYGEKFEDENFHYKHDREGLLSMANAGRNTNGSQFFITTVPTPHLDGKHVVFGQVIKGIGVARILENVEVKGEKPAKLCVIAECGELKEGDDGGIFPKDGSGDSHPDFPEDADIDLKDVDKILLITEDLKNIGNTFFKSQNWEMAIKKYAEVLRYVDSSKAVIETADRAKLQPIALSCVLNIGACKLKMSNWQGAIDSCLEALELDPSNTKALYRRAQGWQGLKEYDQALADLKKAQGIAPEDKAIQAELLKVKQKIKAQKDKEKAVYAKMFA
Text: as §1

[5] = target: T4, PPIF (Homo sapiens, UniProt P30405); experiment: as above; conditions: 10 μM
T4 construct: His6 (N); made in house
T4 sequence (P30405 30-207): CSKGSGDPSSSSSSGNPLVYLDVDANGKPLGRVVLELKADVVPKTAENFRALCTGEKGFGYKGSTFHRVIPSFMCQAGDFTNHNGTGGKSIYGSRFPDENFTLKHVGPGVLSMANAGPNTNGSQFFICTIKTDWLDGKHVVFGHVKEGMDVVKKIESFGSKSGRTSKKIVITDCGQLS
Text: as §1

[6] = target: T5, FKBP38/Ca2+/CaM (Homo sapiens, UniProt Q14318); experiment: as above; conditions: 10 μM; 2 mM Ca2+ and 5 μM CaM
T5 construct: His6 (N); made in house
T5 sequence (Q14318 whole entry): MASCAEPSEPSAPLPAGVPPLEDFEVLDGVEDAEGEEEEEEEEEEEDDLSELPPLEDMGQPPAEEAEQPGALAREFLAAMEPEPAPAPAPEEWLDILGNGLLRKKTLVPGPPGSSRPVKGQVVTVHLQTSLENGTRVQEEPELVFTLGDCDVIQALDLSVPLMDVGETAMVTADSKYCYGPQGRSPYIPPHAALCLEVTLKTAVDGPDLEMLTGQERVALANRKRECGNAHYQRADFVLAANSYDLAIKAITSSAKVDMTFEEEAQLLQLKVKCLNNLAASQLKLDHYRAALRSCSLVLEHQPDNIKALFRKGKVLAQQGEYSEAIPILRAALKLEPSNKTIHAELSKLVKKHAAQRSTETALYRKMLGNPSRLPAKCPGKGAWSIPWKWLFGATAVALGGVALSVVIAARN
Text: as §1

[7] = target: T6, His6-tagged FKBP52 (Homo sapiens, UniProt Q02790); experiment: [3H]-FK506 binding on Ni-chelated FLASH plate; conditions: read-out: FKBP 52 (Kd)
T6 construct: made in house
T6 sequence (Q02790 1-459): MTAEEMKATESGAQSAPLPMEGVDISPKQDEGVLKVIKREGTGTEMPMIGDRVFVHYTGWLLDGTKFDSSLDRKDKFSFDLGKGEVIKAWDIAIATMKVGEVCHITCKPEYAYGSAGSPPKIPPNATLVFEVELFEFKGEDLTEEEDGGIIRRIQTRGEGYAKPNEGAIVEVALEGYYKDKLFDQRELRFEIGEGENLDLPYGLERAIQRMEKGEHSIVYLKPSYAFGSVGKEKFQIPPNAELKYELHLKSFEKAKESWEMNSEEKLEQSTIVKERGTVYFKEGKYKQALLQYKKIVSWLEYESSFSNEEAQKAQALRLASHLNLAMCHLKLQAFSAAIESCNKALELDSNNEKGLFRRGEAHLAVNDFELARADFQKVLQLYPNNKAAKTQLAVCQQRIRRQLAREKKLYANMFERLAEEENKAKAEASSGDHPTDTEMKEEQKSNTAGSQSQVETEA
Description: (§2) Reactions were carried out in triplicate at 25° C. for 30 min. Kd were calculated using methods described by Carreras (Anal. Biochem. 298, 57-61 (2001)).

[8] = target: His6-tagged FKBP12 (Homo sapiens, UniProt P62942); experiment: [3H]-FK506 binding on Ni-chelated FLASH plate; conditions: read-out: FKBP 12 (Kd)
Chain of His6-tagged FKBP12 (P62942 whole entry): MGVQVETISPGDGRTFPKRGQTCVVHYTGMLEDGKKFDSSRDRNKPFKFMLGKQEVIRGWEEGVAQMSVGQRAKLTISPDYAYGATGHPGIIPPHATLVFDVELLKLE
Description: as §2

[9] = tested on: Human CD4+ T cells; experiment: Immunosuppression assay: IL-2 stimulated CD4+ T-cell proliferation; type: cell-based; conditions: Homo sapiens, CD4+ T cell
Description: Human CD4^+ T cells were purified by negative selection from peripheral blood lymphocytes using RosetteSep as per manufacture's instructions (StemCell Technologies, Inc. Vancouver, British Columbia). Tosyl-activated magnetic microspheres (Dynal, Great Neck, N.Y.) were coated with anti-CD3 Ab (1 μg/10^7 microspheres), and anti-CD28Ab ([…]) as described in Blair et al. J. Immunol., 160:12, 1998. […] Protein-coated microspheres were added to purified CD4+T cells (2×10^6cells/mL, ratio 1 bead: 1 cell) and activated for 72 hours in RPMI, 10% fetal calf serum, 2 mM glutamine media. Cells were harvested, washed, and cultured overnight in fresh media and re-stimulated with IL-2 as described in Bennett et al., J. Immunol. 170:711, 2003. […] Seventy-two hours after culture re-stimulation, plates were pulsed with 1 μCi/well tritiated thymidine and incubated for a 6-16 hour period.

[10] = tested on: cortical neurons; experiment: Neurite outgrowth in cortical neurons; type: cell-based, rat; conditions: siRNA-transfected rat cortical neurons, 24 h; control lamin A/C siRNA
Description: Cortical neurons were fixed using 2% paraformaldehyde for 5 min followed by 4% paraformaldehyde for 5 min. Cells were incubated in blocking solution (0.2% Triton-X+1.5% normal goat serum in PBS) followed by primary (anti-neuronal class III β-tubulin (TUJ1) (Covance Innovative Antibodies, Berkeley, Calif.) and secondary antibody (Alexa Fluor 488 goat anti-mouse) (Molecular Probes, Carlsbad, Calif.). Each step was performed at room temperature for 1 hr. Total neurite outgrowth for each condition was analyzed using the Neuronal Profiling Bioapplication on an ArrayScan HCS Reader (Cellomics, Pittsburgh, Pa.).
(§3) Briefly, cortical neuron cultures were prepared from embryonic day 15 (E15) rat embryos (Sprague-Dawley, Charles River Laboratories, Wilmington, Mass.). The embryos were collected, their brains were removed, and the cortices were dissected out in ice-cold phosphate-buffered saline (PBS) without Ca^2+ and Mg^2+. Dissected pieces of cortical tissue were pooled together and transferred to an enzymatic dissociation media containing 20 IU/ml papain in Earle's balanced salt solution (Worthington Biochemical, Freehold, N.J.) and incubated for 30 min at 37° C. After enzymatic dissociation, the papain solution was aspirated and the tissue mechanically triturated with a fire-polished Pasteur pipette in complete media [Neurobasal Medium with B-27 supplement (Gibco, Grand Island, N.Y.), 100 IU/ml penicillin, 100 μg/ml streptomycin, 3.3 μg/ml aphidicolin, 0.5 mM glutamate] containing 2,000 IU/ml DNase and 10-mg/ml ovomucoid protease inhibitor.

[11] = tested on: cultured rat cortical neurons; experiment: Neuronal survival assay (neurofilament ELISA); type: cell-based; conditions: siRNA-transfected rat cortical neurons; neurofilament ELISA
Description: Cultures were fixed for 30 min with 4% paraformaldehyde at 37° C. Nonspecific binding was blocked by incubating with PBS containing 0.3% Triton X-100 and 5% fetal bovine serum (FBS) for 45 min. Cultures were then incubated overnight at 4° C. with an anti-neurofilament (200 kD) monoclonal antibody (1:1000, clone RT-97, Chemicon, Temecula, Calif.). After washing, a peroxidase-conjugated secondary antibody (1:1000, Vector Labs, Burlingame, Calif.) was applied for 2 h. After three washes, the peroxidase substrate K-BlueMax (Neogen, Lexington, Ky.; Young et al., 1999) was added to the cultures and incubated for 10 min on an orbital shaker. The peroxidase substrate is highly soluble in the K-BlueMax solution. Optical density is then readily measured using a Molecular Devices Spectramax Plus colorimetric plate reader at 650
as §3

[12] = tested on: Ca2+ channel in F-11 cells; experiment: Whole-cell patch clamp recording of Ca2+ currents in F-11 cells; type: cell-based, rat and mouse hybrid; conditions: 5 μM in the bath for 2 hrs
Description: The whole-cell configuration of the patch-clamp technique was used to record calcium currents from the cells at room temperature using an EPC-9 amplifier (HEKA, Instrutech Corp.) with the acquisition and analysis program Pulse-PulseFit from HEKA (Lambrecht, Germany). Electrodes were fabricated using a P-87 puller (Sutter Instrument). […] The standard bath recording solution is Ca^2+ and Mg^2+ free HBSS (pH 7.4) containing 10 mM HEPES, 10 mM dextrose, and 4 mM BaCl2. Currents were filtered at 3 kHz, and the inward Ca^2+ currents were recorded from cells held at −90 mV with 10 mV depolarizing steps from −80 mV to 60 mV for 50 ms.

Molecule: 9,27-dihydroxy-3-{2-[4-hydroxy-3-methoxycyclohexyl ]-1-methylethyl}-10,21-dimethoxy-6,8,12,14,20,26-hexamethyl-37-phenyl-4,9,10,12,13,14,15,18,21,22,23,24,25,26,27,32,33,34,34a-nonadecahydro-3H-23,27-epoxy-18,15-(epoxyimino)pyrido[2,1-c][1,4]oxazacyclohentriacontine-1,5,11,28,29(6H, 31H)-pentone [Rapamycin analogue I]
binding of [14C]-1 to FKBPs [1]: well | binding of [14C]-Compound 1 to CACNB4 [2]: negligibly | binding of [14C]-Compound 1 to mutant His6-CACNB1:TGG548TAA [3]: weakly | binding of [14C]-1 to PPID [4]: weakly | binding of [14C]-1 to PPIF [5]: negligibly | binding of [14C]-1 to FKBP38/Ca2+/CaM [6]: negligibly

Kd [7]: > 12 nM | Kd [8]: > 110 nM
Molecule: CCC(C)(C)C(=O)C(=O)N1CCC[C@H]1C(=O)OCCCc1cccnc1 [GPI-1046, reference compound]

Kd [7]: 1.4 ± 0.1 nM
Molecule: CO[C@H]1C[C@@H]2CC[C@@H](C)[C@@](O)(O2)C(=O)C(=O)N2CCCC[C@H]2C(=O)O[C@H]([C@H](C)C[C@@H]2CC[C@@H](O)[C@H](OC)C2)CC(=O)[C@H](C)/C=C(\C)[C@@H](O)[C@@H](OC)C(=O)[C@H](C)C[C@H](C)/C=C/C=C/C=C/1C [Rapamycin, reference compound]
IC50 [9]: 5 nM

Molecule: FKBP52 siRNA: siRNA, sense CCUAGCUAUGCUUUUGGCATT (SEQ ID NO:17), antisense UGCCAAAGCAUAGCUAGGTT (SEQ ID NO:18) (chemistry not given here)
total neurite outgrowth compared to control [10]: 125±12 % of control | percent neuronal survival compared to control [11]: 112±2 % of control

Molecule: CACNB1 siRNA: siRNA, sense GGAGAAGUACAAUAAUGACTT (SEQ ID NO:15), antisense GUCAUUAUUGUACUUCUCCTT (SEQ ID NO:16) (chemistry not given here)
total neurite outgrowth compared to control [10]: essentially unchanged | percent neuronal survival compared to control [11]: 80±3 % of control

Molecule: C=CC[C@@H]1/C=C(\C)C[C@H](C)C[C@H](OC)[C@H]2O[C@@](O)(C(=O)C(=O)N3CCCC[C@H]3C(=O)O[C@H](/C(C)=C/[C@@H]3CC[C@@H](O)[C@H](OC)C3)[C@H](C)[C@@H](O)CC1=O)[C@H](C)C[C@@H]2OC [FK506, reference compound]
Ca2+ current density [12]: 2.9+/−0.1 pA/pF | decrease of Ca2+ current density vs vehicle [12]: 55%
